Test results: ChEMBL document CHEMBL5212743, “Selectivity Literature for EUbOPEN Chemogenomics Library wave 3” (2023)
Blank lines part the entries; values can stand above or below the compound they belong to.

Assays:
[1] = biological target: Mitogen-activated protein kinase kinase kinase 2 (Homo sapiens) (UniProt Q9Y2U5); test: Selectivity interaction (KinomeScan (DiscoverX)) EUB0000178b MAP3K2; details: at 1 µM
[2] = biological target: T1, Receptor-interacting serine/threonine-protein kinase 4 (Homo sapiens) (UniProt P57078); test: Selectivity interaction (KinomeScan (DiscoverX)) EUB0000178b RIPK4; details: at 1 µM
T1 sequence (whole entry): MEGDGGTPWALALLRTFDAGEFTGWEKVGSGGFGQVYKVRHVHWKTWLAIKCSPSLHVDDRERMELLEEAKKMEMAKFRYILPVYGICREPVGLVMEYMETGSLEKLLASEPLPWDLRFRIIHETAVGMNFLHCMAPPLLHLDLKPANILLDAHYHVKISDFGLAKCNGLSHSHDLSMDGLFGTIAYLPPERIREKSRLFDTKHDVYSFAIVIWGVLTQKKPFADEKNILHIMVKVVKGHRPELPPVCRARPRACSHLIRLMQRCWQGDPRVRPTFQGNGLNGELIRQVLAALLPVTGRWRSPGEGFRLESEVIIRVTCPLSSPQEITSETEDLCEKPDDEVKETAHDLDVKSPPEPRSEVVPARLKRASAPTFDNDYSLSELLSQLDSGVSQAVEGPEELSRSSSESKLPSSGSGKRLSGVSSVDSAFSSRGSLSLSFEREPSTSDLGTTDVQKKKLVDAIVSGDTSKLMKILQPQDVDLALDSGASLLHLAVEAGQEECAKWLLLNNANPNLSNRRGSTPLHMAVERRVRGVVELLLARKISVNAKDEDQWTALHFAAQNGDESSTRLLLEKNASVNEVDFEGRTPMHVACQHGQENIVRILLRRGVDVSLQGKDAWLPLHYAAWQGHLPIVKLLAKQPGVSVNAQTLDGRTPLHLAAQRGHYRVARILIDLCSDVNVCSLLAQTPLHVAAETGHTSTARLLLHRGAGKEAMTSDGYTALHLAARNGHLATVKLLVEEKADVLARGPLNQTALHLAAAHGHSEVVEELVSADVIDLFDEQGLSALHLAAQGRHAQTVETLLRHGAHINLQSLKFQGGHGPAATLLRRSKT

[3] = biological target: Phosphatidylinositol 4-phosphate 5-kinase type-1 gamma (Homo sapiens) (UniProt O60331); test: Selectivity interaction (KinomeScan (DiscoverX)) EUB0000178b PIP5K1C; details: at 1 µM
[4] = biological target: Tyrosine-protein kinase FRK (Homo sapiens, UniProt P42685); details: at 1 µM
[5] = biological target: T2, Phosphatidylinositol 5-phosphate 4-kinase type-2 beta (Homo sapiens) (UniProt P78356); test: Selectivity interaction (KinomeScan (DiscoverX)) EUB0000698a PIP4K2B; details: at 10 µM
T2 sequence (whole entry): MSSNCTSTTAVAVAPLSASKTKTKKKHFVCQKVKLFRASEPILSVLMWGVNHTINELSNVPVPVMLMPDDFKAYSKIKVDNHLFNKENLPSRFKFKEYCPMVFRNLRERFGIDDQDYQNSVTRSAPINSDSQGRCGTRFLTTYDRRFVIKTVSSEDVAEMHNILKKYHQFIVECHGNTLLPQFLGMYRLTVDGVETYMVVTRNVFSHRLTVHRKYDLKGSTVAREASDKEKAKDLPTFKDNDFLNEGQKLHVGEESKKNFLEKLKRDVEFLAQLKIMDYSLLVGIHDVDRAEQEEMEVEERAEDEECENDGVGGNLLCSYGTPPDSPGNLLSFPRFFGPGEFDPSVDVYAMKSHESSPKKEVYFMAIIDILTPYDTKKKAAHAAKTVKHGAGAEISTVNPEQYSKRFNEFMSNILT

[6] = biological target: Rho-associated protein kinase 1 (Homo sapiens) (UniProt Q13464); test: Selectivity interaction (KinomeScan (DiscoverX)) EUB0000698a ROCK1; details: at 10 µM
[7] = biological target: RAC-alpha serine/threonine-protein kinase (Homo sapiens, UniProt P31749); test: Selectivity interaction (Kinase panel (University of Dundee)) EUB0000169b AKT1; details: at 10 µM
[8] = biological target: Calcium/calmodulin-dependent protein kinase kinase 1 (Homo sapiens) (UniProt Q8N5S9); test: Selectivity interaction (KinomeScan (DiscoverX)) EUB0000169b CAMKK1; details: at 1 µM
[9] = biological target: T3, Serine/threonine-protein kinase Sgk1 (Homo sapiens) (UniProt O00141); test: Selectivity interaction (Kinase panel (University of Dundee)) EUB0000169b SGK1; details: at 10 µM
T3 sequence (whole entry): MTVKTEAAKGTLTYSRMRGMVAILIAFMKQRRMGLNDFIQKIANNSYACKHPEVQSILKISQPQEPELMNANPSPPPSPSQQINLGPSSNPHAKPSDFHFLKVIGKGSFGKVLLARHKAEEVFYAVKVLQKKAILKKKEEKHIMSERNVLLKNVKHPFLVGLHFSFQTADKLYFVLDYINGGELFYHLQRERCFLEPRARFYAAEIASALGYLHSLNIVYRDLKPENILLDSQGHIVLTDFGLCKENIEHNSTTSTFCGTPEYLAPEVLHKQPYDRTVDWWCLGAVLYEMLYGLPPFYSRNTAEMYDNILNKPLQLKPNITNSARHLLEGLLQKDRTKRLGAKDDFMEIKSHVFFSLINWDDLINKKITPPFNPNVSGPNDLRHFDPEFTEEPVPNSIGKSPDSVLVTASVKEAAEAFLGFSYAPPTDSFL

[10] = biological target: Mitogen-activated protein kinase 8 (Homo sapiens, UniProt P45983); details: at 10 µM
[11] = biological target: Serine/threonine-protein kinase 16 (Homo sapiens, UniProt O75716); test: Selectivity interaction (KinomeScan (DiscoverX)) EUB0000702a STK16; details: at 1 µM
[12] = biological target: Serine/threonine-protein kinase Chk2 (Homo sapiens, UniProt O96017); test: Selectivity interaction (KinomeScan (DiscoverX)) EUB0000702a CHEK2; details: at 1 µM
[13] = biological target: T4, Mitogen-activated protein kinase 15 (Homo sapiens) (UniProt Q8TD08); test: Selectivity interaction (KinomeScan (DiscoverX)) EUB0000702a MAPK15; details: at 1 µM
T4 sequence (whole entry): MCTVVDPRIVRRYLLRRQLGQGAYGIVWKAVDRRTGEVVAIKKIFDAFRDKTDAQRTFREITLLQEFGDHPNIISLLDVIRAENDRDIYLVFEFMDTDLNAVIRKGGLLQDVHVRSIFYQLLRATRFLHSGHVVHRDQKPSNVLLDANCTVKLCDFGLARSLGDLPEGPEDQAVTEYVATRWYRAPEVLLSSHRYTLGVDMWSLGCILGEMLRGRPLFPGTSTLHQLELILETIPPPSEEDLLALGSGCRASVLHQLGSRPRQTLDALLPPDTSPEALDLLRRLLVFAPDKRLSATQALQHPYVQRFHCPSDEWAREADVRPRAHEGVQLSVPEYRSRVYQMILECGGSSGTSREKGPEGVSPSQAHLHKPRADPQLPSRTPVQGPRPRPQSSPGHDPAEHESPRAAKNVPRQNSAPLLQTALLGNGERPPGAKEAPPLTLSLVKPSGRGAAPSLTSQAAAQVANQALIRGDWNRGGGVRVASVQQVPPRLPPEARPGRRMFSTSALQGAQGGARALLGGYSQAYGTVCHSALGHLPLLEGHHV

Sequence of Serine/threonine-protein kinase 16 (O75716 whole entry): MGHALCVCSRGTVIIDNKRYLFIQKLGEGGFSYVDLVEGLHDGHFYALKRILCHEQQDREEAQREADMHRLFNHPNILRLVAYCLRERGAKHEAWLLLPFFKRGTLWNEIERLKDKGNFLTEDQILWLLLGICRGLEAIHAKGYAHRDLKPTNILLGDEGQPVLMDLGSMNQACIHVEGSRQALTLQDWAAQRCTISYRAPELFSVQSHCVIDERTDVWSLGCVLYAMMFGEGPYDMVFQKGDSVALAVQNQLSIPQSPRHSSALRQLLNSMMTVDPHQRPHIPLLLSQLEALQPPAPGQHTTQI
Sequence of Tyrosine-protein kinase FRK (P42685 whole entry): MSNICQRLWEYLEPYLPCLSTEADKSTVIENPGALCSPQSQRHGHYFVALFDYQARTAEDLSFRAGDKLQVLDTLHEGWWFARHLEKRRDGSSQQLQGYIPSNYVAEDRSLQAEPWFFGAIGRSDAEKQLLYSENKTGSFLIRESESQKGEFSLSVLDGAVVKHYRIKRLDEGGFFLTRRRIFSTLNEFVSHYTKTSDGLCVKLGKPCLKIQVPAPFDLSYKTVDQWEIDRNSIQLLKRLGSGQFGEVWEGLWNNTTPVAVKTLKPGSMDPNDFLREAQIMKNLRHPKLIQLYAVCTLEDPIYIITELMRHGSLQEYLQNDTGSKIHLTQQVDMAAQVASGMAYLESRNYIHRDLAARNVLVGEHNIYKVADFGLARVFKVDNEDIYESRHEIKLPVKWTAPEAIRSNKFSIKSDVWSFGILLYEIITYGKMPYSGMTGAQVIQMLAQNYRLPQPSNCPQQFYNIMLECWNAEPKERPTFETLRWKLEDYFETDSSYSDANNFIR
Sequence of Rho-associated protein kinase 1 (Homo sapiens) (Q13464 2-1354 limits assumed): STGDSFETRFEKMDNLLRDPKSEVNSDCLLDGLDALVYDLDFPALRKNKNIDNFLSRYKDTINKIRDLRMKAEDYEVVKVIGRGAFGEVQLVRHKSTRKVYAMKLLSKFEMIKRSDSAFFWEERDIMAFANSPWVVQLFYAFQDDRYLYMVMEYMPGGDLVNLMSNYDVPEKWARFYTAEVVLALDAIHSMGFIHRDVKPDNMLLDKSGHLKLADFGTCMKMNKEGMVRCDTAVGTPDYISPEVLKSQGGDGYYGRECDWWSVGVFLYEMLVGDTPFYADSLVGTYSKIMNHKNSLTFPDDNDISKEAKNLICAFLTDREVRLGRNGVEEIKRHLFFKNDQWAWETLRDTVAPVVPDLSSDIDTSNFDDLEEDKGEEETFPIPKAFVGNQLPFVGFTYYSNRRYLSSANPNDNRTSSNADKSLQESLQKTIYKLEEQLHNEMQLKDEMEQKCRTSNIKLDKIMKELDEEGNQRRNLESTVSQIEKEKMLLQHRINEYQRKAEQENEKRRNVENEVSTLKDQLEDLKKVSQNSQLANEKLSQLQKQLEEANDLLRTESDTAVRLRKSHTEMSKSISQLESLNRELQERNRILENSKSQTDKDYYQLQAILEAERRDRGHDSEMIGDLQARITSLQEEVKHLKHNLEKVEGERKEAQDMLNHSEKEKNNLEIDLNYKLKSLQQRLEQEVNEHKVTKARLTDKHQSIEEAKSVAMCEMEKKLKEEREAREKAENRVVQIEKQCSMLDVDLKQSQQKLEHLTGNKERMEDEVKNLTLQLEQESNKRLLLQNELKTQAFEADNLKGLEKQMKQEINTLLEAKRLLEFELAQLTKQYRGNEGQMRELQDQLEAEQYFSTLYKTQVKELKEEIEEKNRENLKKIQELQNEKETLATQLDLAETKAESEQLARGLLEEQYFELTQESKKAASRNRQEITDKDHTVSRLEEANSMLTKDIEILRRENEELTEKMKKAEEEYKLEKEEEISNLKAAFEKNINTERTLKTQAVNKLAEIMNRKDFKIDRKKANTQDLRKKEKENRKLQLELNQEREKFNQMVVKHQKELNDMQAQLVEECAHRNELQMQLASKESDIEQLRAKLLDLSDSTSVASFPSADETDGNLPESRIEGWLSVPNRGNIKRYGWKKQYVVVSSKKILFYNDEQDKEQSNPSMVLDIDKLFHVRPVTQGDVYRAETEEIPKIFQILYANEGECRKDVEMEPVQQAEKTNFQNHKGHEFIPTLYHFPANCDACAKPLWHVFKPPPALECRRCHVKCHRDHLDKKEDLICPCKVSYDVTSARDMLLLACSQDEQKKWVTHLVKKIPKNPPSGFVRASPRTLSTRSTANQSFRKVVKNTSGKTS
Sequence of Phosphatidylinositol 4-phosphate 5-kinase type-1 gamma (Homo sapiens) (O60331 whole entry): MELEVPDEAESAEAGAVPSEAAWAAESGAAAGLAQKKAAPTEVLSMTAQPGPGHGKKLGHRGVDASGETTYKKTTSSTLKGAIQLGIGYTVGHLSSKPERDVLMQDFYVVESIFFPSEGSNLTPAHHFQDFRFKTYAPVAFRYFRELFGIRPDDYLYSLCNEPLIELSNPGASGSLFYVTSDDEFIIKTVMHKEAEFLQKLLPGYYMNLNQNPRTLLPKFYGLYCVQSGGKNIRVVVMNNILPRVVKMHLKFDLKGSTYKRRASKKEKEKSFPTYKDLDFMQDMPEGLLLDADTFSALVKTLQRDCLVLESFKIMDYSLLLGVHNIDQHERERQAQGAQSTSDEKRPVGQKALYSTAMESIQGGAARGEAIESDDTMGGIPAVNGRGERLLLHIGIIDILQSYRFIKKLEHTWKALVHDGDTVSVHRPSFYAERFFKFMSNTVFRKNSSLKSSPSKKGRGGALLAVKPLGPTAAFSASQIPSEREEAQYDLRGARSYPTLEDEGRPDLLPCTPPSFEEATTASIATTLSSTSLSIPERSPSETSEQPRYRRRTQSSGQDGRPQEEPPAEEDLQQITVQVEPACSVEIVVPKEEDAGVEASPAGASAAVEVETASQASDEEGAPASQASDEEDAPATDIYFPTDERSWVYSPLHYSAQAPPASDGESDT
Sequence of RAC-alpha serine/threonine-protein kinase (P31749 whole entry): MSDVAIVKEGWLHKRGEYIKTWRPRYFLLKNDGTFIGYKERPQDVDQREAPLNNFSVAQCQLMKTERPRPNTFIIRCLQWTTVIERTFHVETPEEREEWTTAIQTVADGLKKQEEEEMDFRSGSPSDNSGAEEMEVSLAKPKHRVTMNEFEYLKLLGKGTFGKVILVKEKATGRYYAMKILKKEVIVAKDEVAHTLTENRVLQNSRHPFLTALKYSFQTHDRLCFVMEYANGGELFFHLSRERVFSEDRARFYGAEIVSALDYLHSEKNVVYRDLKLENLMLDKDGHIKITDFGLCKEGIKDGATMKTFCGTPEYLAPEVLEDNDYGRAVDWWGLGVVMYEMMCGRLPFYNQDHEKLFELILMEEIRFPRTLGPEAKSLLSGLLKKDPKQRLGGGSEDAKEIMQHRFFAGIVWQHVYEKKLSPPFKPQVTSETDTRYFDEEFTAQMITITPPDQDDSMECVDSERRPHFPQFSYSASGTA
Sequence of Serine/threonine-protein kinase Chk2 (O96017 whole entry): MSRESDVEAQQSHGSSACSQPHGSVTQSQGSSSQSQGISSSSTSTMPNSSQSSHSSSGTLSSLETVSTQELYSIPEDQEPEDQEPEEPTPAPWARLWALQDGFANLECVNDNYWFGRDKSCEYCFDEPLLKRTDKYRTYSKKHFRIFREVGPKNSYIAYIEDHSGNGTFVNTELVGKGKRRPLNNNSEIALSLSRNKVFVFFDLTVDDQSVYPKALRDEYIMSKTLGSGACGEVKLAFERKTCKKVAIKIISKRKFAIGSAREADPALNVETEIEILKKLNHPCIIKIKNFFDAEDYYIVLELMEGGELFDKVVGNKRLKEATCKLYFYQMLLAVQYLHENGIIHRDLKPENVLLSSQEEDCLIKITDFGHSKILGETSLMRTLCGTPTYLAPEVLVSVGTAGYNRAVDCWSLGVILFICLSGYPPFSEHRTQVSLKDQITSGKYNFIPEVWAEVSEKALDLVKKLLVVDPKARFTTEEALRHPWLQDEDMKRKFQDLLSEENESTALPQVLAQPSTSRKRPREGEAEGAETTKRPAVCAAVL
Sequence of Mitogen-activated protein kinase kinase kinase 2 (Homo sapiens) (Q9Y2U5 whole entry): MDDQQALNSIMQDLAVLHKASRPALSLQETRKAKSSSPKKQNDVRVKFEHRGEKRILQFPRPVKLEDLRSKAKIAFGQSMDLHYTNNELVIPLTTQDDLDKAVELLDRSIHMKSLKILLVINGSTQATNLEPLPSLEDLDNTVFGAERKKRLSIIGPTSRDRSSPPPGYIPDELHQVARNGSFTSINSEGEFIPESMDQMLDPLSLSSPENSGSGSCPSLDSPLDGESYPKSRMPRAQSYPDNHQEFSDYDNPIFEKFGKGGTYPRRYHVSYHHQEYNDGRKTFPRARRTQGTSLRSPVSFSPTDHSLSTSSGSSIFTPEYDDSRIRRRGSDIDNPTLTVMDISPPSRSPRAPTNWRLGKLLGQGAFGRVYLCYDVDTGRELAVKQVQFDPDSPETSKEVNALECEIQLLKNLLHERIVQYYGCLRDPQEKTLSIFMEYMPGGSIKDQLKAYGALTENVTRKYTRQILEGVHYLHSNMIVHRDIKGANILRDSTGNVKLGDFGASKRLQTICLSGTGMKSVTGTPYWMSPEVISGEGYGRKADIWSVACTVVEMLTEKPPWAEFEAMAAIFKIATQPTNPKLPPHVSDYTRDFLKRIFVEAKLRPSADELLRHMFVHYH
Sequence of Mitogen-activated protein kinase 8 (P45983 whole entry): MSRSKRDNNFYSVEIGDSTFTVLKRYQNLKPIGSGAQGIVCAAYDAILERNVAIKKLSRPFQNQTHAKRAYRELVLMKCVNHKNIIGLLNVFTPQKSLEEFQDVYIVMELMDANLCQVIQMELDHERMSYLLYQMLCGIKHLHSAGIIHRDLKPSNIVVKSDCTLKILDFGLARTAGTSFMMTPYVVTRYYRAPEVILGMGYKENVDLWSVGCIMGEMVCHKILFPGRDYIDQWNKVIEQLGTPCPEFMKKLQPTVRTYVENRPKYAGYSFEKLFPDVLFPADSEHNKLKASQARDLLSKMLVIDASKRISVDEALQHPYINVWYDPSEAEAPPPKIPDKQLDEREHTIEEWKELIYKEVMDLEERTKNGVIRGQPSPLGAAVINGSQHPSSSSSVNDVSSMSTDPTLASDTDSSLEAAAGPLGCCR

SMILES: CN1C(=O)c2sccc2N(C)c2nc(Nc3ccc(S(N)(=O)=O)cc3)ncc21
% of control [1]: 2.6%
% of control [2]: 9.5%
% of control [3]: 10%

SMILES: CCOc1cn(-c2ccc(F)cc2C)nc1C(=O)Nc1ccc(Oc2ccnc3cc(OC)c(OC)cc23)c(F)c1
% of control [4]: < 10%

SMILES: COc1cc2ncn(-c3cc(OCc4ccccc4C(F)(F)F)c(C(N)=O)s3)c2cc1OC [GW843682X]
% of control [5]: 6.6%
% of control [6]: 4.7%

Further lines, with some results ahead:

% of control [7]: 90%
% of control [8]: 3.7%
% of control [9]: 80%
% of control [10]: 92%
SMILES: CC[C@@H]1C(=O)N(C)c2cnc(Nc3ccc(C(=O)NC4CCN(C)CC4)cc3OC)nc2N1C1CCCC1

% of control [11]: 1.5%
% of control [12]: 0%
SMILES: CN(c1ccnc(CNc2nc(Nc3ccc4c(c3)CC(=O)N4)ncc2C(F)(F)F)n1)S(C)(=O)=O [PF-00911705]
% of control [13]: 4.8%
